In the NIST ThermoML archive (doi:10.1021/je800896m):
“And” between values parts separate entries of the source, which are not always exact repeats. Identical values can stand only once. ± gives the expanded uncertainty stated by the source. Blank lines part the entries; values can stand above or below the molecule they belong to.

Details: Liquid, Closed cell (Static) method

Compound: CC(C)C [2-methylpropane]
vapor or sublimation pressure (318.34 K): 608.3 ± 2.1 kPa | vapor or sublimation pressure (346.96 K): 1177.5 ± 3.7 kPa

Compound: C=C(C)C [2-methylpropene]
vapor or sublimation pressure (318.35 K): 542.1 ± 1.9 kPa | vapor or sublimation pressure (346.14 K): 1054.9 ± 3.4 kPa

Compound: C/C=C/C [(E)-2-butene]
vapor or sublimation pressure (318.34 K): 423.5 ± 1.6 kPa | vapor or sublimation pressure (347.06 K): 868.5 ± 2.8 kPa

Next, values leading:

vapor or sublimation pressure (318.35 K): 437.5 ± 1.6 kPa | vapor or sublimation pressure (346.97 K): 881.7 ± 2.8 kPa
Compound: CCCC [butane]

vapor or sublimation pressure (318.34 K): 7.3 ± 0.8 kPa | vapor or sublimation pressure (318.35 K): 6.9 ± 0.8 kPa and 6.7 ± 0.8 kPa | vapor or sublimation pressure (346.14 K): 21.4 ± 0.8 kPa | vapor or sublimation pressure (346.97 K): 22.2 ± 0.8 kPa and 22.5 ± 0.8 kPa | vapor or sublimation pressure (347.07 K): 22.2 ± 0.8 kPa
Compound: C1CCSC1 [tetrahydrothiophene]
